The assay has as its target T1, guanylate cyclase (Oryctolagus cuniculus, UniProt G1TXB5).
T1 sequence (G1TXB5 28-1056): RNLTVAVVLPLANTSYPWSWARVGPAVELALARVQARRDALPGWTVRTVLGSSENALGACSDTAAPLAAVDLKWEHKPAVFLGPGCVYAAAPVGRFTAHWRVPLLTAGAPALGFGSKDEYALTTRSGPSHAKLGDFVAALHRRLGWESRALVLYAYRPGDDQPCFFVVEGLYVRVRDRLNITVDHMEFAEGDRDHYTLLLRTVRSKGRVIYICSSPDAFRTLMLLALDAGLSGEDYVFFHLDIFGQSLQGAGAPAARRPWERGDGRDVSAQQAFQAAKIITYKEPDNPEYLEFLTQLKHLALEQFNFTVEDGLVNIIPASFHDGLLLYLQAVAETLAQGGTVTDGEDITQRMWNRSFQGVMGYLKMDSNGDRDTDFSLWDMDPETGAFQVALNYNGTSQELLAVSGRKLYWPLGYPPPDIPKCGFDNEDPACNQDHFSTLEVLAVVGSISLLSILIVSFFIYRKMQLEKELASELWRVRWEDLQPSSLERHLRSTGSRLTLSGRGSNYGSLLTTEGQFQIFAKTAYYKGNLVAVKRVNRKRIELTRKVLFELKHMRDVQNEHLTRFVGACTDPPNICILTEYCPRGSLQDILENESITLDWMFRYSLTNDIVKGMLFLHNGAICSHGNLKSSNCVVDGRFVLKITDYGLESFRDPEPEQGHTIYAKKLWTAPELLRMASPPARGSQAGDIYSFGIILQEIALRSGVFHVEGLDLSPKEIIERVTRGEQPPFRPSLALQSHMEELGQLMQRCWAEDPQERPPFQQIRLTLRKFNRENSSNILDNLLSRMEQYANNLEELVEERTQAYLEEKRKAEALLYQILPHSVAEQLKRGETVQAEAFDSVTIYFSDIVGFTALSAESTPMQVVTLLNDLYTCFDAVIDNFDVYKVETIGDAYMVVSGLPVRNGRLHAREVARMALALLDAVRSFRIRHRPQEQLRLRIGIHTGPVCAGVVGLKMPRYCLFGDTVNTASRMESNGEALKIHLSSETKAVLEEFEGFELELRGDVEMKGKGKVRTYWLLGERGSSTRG
Briefly: rANP activation of guanylate cyclase in membrane fractions of whole choroid plexus. The class given is biochemical, rabbit. On the set-up: tissues were homogenized (10 mg wet weight per milliliter); from tissue; host or cells: rabbit cerebral microvessels, choroid plexus, kidney, ciliary process, pia-arachnoid, cerebellum; 100,000 g P1 pellet. The procedure:
The effect of rANP on membrane-bound guanylate cyclase and adenylate cyclase activity in various brain-barrier tissues and tissue fractions from rabbit was compared with its activity in cerebrum and cerebellum. Guanylate cyclase was measured as the rate of cyclic GMP formation by modifications of the technique of Waldman et al., supra, incorporated herein by reference. Briefly, tissues were homogenized (10 mg wet weight per milliliter) in 50 mM tris-HCl, pH 8.0, 1 mM EDTA, 1 mM dithiothreitol, and 250 mM sucrose and centrifuged at 100,000g to obtain a P1 pellet. Reaction tubes contained (in 0.3 ml), 50 mM tris, pH 7.6, 6 mM MnCl₂, 0.5 mM 3-isobutyl, 1-methylxanthine (IBMX), 10 mM theophylline, 3 mM GTP, hormone (in 0.03 ml containing 2.5 mM ascorbic acid and 0.1% bovine serum albumin), and 0.06 ml of P1 fraction (40 to 60 ug of protein). The reaction (4 minutes at 30°C) was started by addition of GTP and terminated by addition of 0.3 ml of 150 mM sodium acetate (pH 4.0) and boiling for 3 minutes. Cyclic GMP formed was subsequently measured by radioimmunoassay as described in example 6, infra. Under these conditions, guanylate cyclase activity was linear with time and tissue concentration. Adenylate cyclase activity in P1 fractions was measured according to the method described by Nathanson, et al., Science; 204:843 (1979); Mol. Pharmacol. 18:199 (1980), see Figure 1C . […] Neurosci. Abstr., 10, 899 (1984); Nathanson, et al., Soc. Neurosci. Abstr., 12, 1257 (1986), incorporated herein by reference, but with a lower concentration (0.025%) of trypsin and a rotating tissue tumbler which allowed cleaner fractionation of epithelial cells from erythrocytes and vascular components.
Adenylate cyclase activity could be stimulated by isoproterenol through β-adrenergic receptors known to be present in this tissue. Values shown are the mean ± range for duplicate enzyme determinations, each assayed for cyclic AMP or cyclic GMP in triplicate. […]

On to “Ser-Leu-Arg-Arg-atriopeptin III (APIII) [rANP 1-28]”, for which, under “choroid plexus, SEM, N = 5”, the “Vmax for stimulation of basal activity” value is reported as 58% ± 16%. Moreover, the “Ka for activation of the enzyme” value (whole choroid plexus, five separate experiments, SEM, 4 min) amounted to 9.8 ± 5.1 nM.
“rANP 13-28 (DRIGAQSGLGCNSFRY; Atrial natriuretic peptide; UniProt P01161 135-150, looked up, fragment)”: where the note is “choroid plexus”, the “stimulation of guanylate cyclase” value is reported as “almost no stimulation”.

These data come from patent publication EP0583821A1, “Atriopeptins, guanylate cyclase activators, and phosphodiesterase inhibitors as treatment for glaucoma, hydrocephalus and cerebral edema (cranial fluid volume dysfunction)” (THE GENERAL HOSPITAL CORPORATION, priority 1987, dated 1988).
